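Method: 48-hour compound exposure of cells in 96-well plates, five concentrations, linear interpolation of endpoints. Abbreviation: GI50, concentration required for 50% inhibition of growth.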 Calls of active or inactive are those of the source. No stated cut-off is given here; in the data, active = GI50 up to about 1.1 µM and inactive = higher.
What was measured:
Experiment in all cases: DTP human tumour cell line panel, 48 h
RXF 393 = test system: RXF 393
CCRF-CEM = test system: CCRF-CEM
LOX IMVI = test system: LOX IMVI
SK-OV-3 = test system: SK-OV-3
NCI-H226 = test system: NCI-H226
HT-29 = test system: HT-29
SK-MEL-28 = test system: SK-MEL-28
HCT-15 = test system: HCT-15
786-0 = test system: 786-0
UACC-257 = test system: UACC-257
MOLT-4 = test system: MOLT-4
CAKI-1 = test system: CAKI-1
SNB-19 = test system: SNB-19
HCT-116 = test system: HCT-116
UO-31 = test system: UO-31
UACC-62 = test system: UACC-62
EKVX = test system: EKVX

c1ccc(OCc2nnc3n2N=C(c2ccccc2)CS3)cc1
GI50 (RXF 393): > 100 µM (inactive) | GI50 (CCRF-CEM): > 100 µM (inactive) | GI50 (LOX IMVI): > 100 µM (inactive) | GI50 (SK-OV-3): > 100 µM (inactive) | GI50 (NCI-H226): > 100 µM (inactive) | GI50 (HT-29): > 100 µM (inactive) | GI50 (SK-MEL-28): > 100 µM (inactive) | GI50 (HCT-15): > 100 µM | GI50 (786-0): > 100 µM (inactive) | GI50 (UACC-257): > 100 µM (inactive) | GI50 (MOLT-4): 71.6 µM (inactive) | GI50 (CAKI-1): 71 µM (inactive) | GI50 (SNB-19): > 100 µM (inactive) | GI50 (HCT-116): > 100 µM (inactive) | GI50 (UO-31): 23 µM (inactive) | GI50 (UACC-62): > 100 µM (inactive)

O=C(Nc1cc(Cl)ccc1Cl)C(=O)C(c1cnc2ccccc2n1)[N+](=O)[O-] (stereo not given)
GI50 (RXF 393): > 100 µM (inactive) | GI50 (CCRF-CEM): > 100 µM (inactive) | GI50 (LOX IMVI): > 100 µM (inactive) | GI50 (SK-OV-3): > 100 µM (inactive) | GI50 (NCI-H226): > 100 µM (inactive) | GI50 (HT-29): > 100 µM (inactive) | GI50 (SK-MEL-28): > 100 µM (inactive) | GI50 (HCT-15): > 100 µM | GI50 (786-0): > 100 µM (inactive) | GI50 (UACC-257): > 100 µM (inactive) | GI50 (MOLT-4): > 100 µM (inactive) | GI50 (CAKI-1): > 100 µM (inactive) | GI50 (SNB-19): > 100 µM (inactive) | GI50 (EKVX): > 100 µM (inactive) | GI50 (HCT-116): > 100 µM (inactive) | GI50 (UO-31): > 100 µM (inactive) | GI50 (UACC-62): > 100 µM (inactive)

O=[N+]([O-])c1ccc2nc(/C(=N\Nc3ccccc3)C(O)c3ccc4c(c3)OCO4)c(O)nc2c1 (stereo not given)
GI50 (RXF 393): > 100 µM (inactive) | GI50 (CCRF-CEM): > 100 µM (inactive) | GI50 (LOX IMVI): > 100 µM (inactive) | GI50 (SK-OV-3): > 100 µM (inactive) | GI50 (NCI-H226): > 100 µM (inactive) | GI50 (HT-29): 97.1 µM (inactive) | GI50 (SK-MEL-28): > 100 µM (inactive) | GI50 (HCT-15): 20.7 µM | GI50 (786-0): > 100 µM (inactive) | GI50 (UACC-257): > 100 µM (inactive) | GI50 (MOLT-4): > 100 µM (inactive) | GI50 (SNB-19): > 100 µM (inactive) | GI50 (EKVX): > 100 µM (inactive) | GI50 (HCT-116): > 100 µM (inactive) | GI50 (UO-31): 79.3 µM (inactive) | GI50 (UACC-62): 34 µM (inactive)

CC1=CC(=O)N2[C@H](OC[C@@H]2C(C)C)O1
GI50 (RXF 393): > 100 µM (inactive) | GI50 (CCRF-CEM): > 100 µM (inactive) | GI50 (SK-OV-3): > 100 µM (inactive) | GI50 (NCI-H226): > 100 µM (inactive) | GI50 (HT-29): > 100 µM (inactive) | GI50 (SK-MEL-28): > 100 µM (inactive) | GI50 (HCT-15): > 100 µM | GI50 (786-0): > 100 µM (inactive) | GI50 (UACC-257): > 100 µM (inactive) | GI50 (MOLT-4): > 100 µM (inactive) | GI50 (CAKI-1): > 100 µM (inactive) | GI50 (SNB-19): > 100 µM (inactive) | GI50 (EKVX): > 10 µM (inactive) | GI50 (HCT-116): > 100 µM (inactive) | GI50 (UO-31): > 100 µM (inactive) | GI50 (UACC-62): > 100 µM (inactive)

N#C/N=C(\N)NCCO
GI50 (RXF 393): 16.6 µM (inactive) | GI50 (SK-OV-3): > 100 µM (inactive) | GI50 (NCI-H226): > 100 µM (inactive) | GI50 (HT-29): > 100 µM (inactive) | GI50 (SK-MEL-28): > 100 µM (inactive) | GI50 (HCT-15): 38.7 µM | GI50 (786-0): 38.1 µM (inactive) | GI50 (UACC-257): > 100 µM (inactive) | GI50 (MOLT-4): > 100 µM (inactive) | GI50 (CAKI-1): > 100 µM (inactive) | GI50 (SNB-19): > 100 µM (inactive) | GI50 (EKVX): > 100 µM (inactive) | GI50 (HCT-116): > 100 µM (inactive) | GI50 (UO-31): > 100 µM (inactive) | GI50 (UACC-62): > 100 µM (inactive)

Oc1cc(Cl)ncn1
GI50 (CCRF-CEM): > 100 µM (inactive) | GI50 (LOX IMVI): > 100 µM (inactive) | GI50 (SK-OV-3): > 100 µM (inactive) | GI50 (NCI-H226): > 100 µM (inactive) | GI50 (HT-29): > 100 µM (inactive) | GI50 (SK-MEL-28): > 100 µM (inactive) | GI50 (HCT-15): > 100 µM | GI50 (786-0): > 100 µM (inactive) | GI50 (UACC-257): > 100 µM (inactive) | GI50 (MOLT-4): > 100 µM (inactive) | GI50 (CAKI-1): > 100 µM (inactive) | GI50 (SNB-19): > 100 µM (inactive) | GI50 (EKVX): > 100 µM (inactive) | GI50 (HCT-116): > 100 µM (inactive) | GI50 (UO-31): > 100 µM (inactive) | GI50 (UACC-62): > 100 µM (inactive)

CC(C)CCS(=O)(=O)OCCCCOS(=O)(=O)CCC(C)C
GI50 (RXF 393): > 100 µM (inactive) | GI50 (CCRF-CEM): > 100 µM (inactive) | GI50 (LOX IMVI): > 100 µM (inactive) | GI50 (SK-OV-3): > 100 µM (inactive) | GI50 (NCI-H226): > 100 µM (inactive) | GI50 (HT-29): > 100 µM (inactive) | GI50 (SK-MEL-28): > 100 µM (inactive) | GI50 (HCT-15): > 100 µM | GI50 (786-0): > 100 µM (inactive) | GI50 (UACC-257): > 100 µM (inactive) | GI50 (MOLT-4): > 100 µM (inactive) | GI50 (SNB-19): > 100 µM (inactive) | GI50 (EKVX): > 100 µM (inactive) | GI50 (HCT-116): > 100 µM (inactive) | GI50 (UO-31): > 100 µM (inactive) | GI50 (UACC-62): > 100 µM (inactive)

CC(C)C(NCc1c2ccccc2nc2ccccc12)C(=O)O (stereo not given)
GI50 (RXF 393): 24.5 µM (inactive) | GI50 (CCRF-CEM): 23.8 µM (inactive) | GI50 (LOX IMVI): 30.5 µM (inactive) | GI50 (SK-OV-3): > 100 µM (inactive) | GI50 (NCI-H226): > 100 µM (inactive) | GI50 (HT-29): 30.7 µM (inactive) | GI50 (SK-MEL-28): 87.5 µM (inactive) | GI50 (HCT-15): 35.7 µM | GI50 (786-0): 61.2 µM (inactive) | GI50 (UACC-257): 54.5 µM (inactive) | GI50 (MOLT-4): 15.2 µM (inactive) | GI50 (CAKI-1): 28.6 µM (inactive) | GI50 (EKVX): 40.6 µM (inactive) | GI50 (HCT-116): 26.4 µM (inactive)

CC1=C2[C@H](c3ccccc3)C3C=CC2(c2ccccc23)N(C(=O)C(c2ccccc2)c2ccccc2)C1=O (stereo not given in full)
GI50 (RXF 393): > 100 µM (inactive) | GI50 (CCRF-CEM): > 100 µM (inactive) | GI50 (LOX IMVI): > 100 µM (inactive) | GI50 (SK-OV-3): > 100 µM (inactive) | GI50 (HT-29): > 100 µM (inactive) | GI50 (SK-MEL-28): > 100 µM (inactive) | GI50 (HCT-15): > 100 µM | GI50 (786-0): > 100 µM (inactive) | GI50 (UACC-257): > 100 µM (inactive) | GI50 (MOLT-4): > 100 µM (inactive) | GI50 (CAKI-1): > 100 µM (inactive) | GI50 (SNB-19): > 100 µM (inactive) | GI50 (EKVX): > 100 µM (inactive) | GI50 (HCT-116): > 100 µM (inactive) | GI50 (UO-31): > 100 µM (inactive) | GI50 (UACC-62): > 100 µM (inactive)

COc1ccc2c(c1)[n+]([O-])c(-c1ccc(C)cc1)c(N)[n+]2[O-]
GI50 (SK-OV-3): > 100 µM (inactive) | GI50 (NCI-H226): > 100 µM (inactive) | GI50 (HT-29): 52.5 µM (inactive) | GI50 (SK-MEL-28): 89.5 µM (inactive) | GI50 (HCT-15): 45.8 µM | GI50 (786-0): 70.8 µM (inactive) | GI50 (UACC-257): 23.6 µM (inactive) | GI50 (CAKI-1): 49.2 µM (inactive) | GI50 (SNB-19): > 100 µM (inactive) | GI50 (EKVX): 67.8 µM (inactive) | GI50 (HCT-116): > 100 µM (inactive) | GI50 (UO-31): 55.1 µM (inactive)

COc1cc(/C=C/C(=O)c2cccc3ccccc23)cc(OC)c1OC
GI50 (RXF 393): 2.33 µM (inactive) | GI50 (CCRF-CEM): 2.56 µM (inactive) | GI50 (LOX IMVI): 3.03 µM (inactive) | GI50 (SK-OV-3): 15.2 µM (inactive) | GI50 (NCI-H226): 15.3 µM (inactive) | GI50 (HT-29): 4.27 µM (inactive) | GI50 (SK-MEL-28): 6.24 µM (inactive) | GI50 (786-0): 4.49 µM (inactive) | GI50 (UACC-257): 6.37 µM (inactive) | GI50 (MOLT-4): 3.44 µM (inactive) | GI50 (CAKI-1): 7.5 µM (inactive) | GI50 (SNB-19): 13.4 µM (inactive) | GI50 (EKVX): 15 µM (inactive) | GI50 (HCT-116): 3.82 µM (inactive) | GI50 (UO-31): 16.8 µM (inactive) | GI50 (UACC-62): 6.71 µM (inactive)

N#CC1(C#N)C(c2ccc(C3C(C#N)(C#N)C3(C#N)C#N)cc2)C1(C#N)C#N
GI50 (RXF 393): > 100 µM (inactive) | GI50 (CCRF-CEM): > 100 µM (inactive) | GI50 (LOX IMVI): > 100 µM (inactive) | GI50 (SK-OV-3): > 100 µM (inactive) | GI50 (HT-29): > 100 µM (inactive) | GI50 (SK-MEL-28): > 100 µM (inactive) | GI50 (HCT-15): > 100 µM | GI50 (786-0): > 100 µM (inactive) | GI50 (UACC-257): > 100 µM (inactive) | GI50 (MOLT-4): > 100 µM (inactive) | GI50 (CAKI-1): > 100 µM (inactive) | GI50 (SNB-19): > 100 µM (inactive) | GI50 (EKVX): > 100 µM (inactive) | GI50 (UO-31): > 100 µM (inactive) | GI50 (UACC-62): > 100 µM (inactive)

Nc1cc(C(=O)NC2C3CC4CC(C3)CC2C4)nc(S)n1 (stereo not given)
GI50 (RXF 393): > 100 µM (inactive) | GI50 (CCRF-CEM): > 100 µM (inactive) | GI50 (SK-OV-3): > 100 µM (inactive) | GI50 (NCI-H226): > 100 µM (inactive) | GI50 (HT-29): > 100 µM (inactive) | GI50 (SK-MEL-28): > 100 µM (inactive) | GI50 (HCT-15): > 100 µM | GI50 (786-0): > 100 µM (inactive) | GI50 (UACC-257): > 100 µM (inactive) | GI50 (MOLT-4): > 100 µM (inactive) | GI50 (CAKI-1): > 100 µM (inactive) | GI50 (SNB-19): > 100 µM (inactive) | GI50 (EKVX): > 100 µM (inactive) | GI50 (HCT-116): > 100 µM (inactive) | GI50 (UO-31): > 100 µM (inactive)

From ChEMBL document CHEMBL1201862, “PubChem BioAssay data set” (2004)
